Laboratory results published in the supplement of paper PMC13380429.

Columns and labels:
Conditions in all cases: 72 h
[1] = system: Calu-3; experiment: drug sensitivity score (DSS) for viability; higher = more toxic; extreme values may be limits of the assay
[2] = system: HepG2; experiment: as above
[3] = system: U2OS; experiment: as above
[4] = system: Caco-2; experiment: as above
[5] = system: Vero E6; experiment: as above
[6] = system: Calu-3; experiment: relative viability EC50 (midpoint between 100% and the lowest measured viability); higher = less toxic
[7] = system: HepG2; experiment: as above
[8] = system: U2OS; experiment: as above
[9] = system: Vero E6; experiment: as above
[10] = system: Calu-3; experiment: cell viability relative to DMSO; higher = less toxic
[11] = system: HepG2; experiment: as above
[12] = system: U2OS; experiment: as above
[13] = system: Caco-2; experiment: as above
[14] = system: Vero E6; experiment: as above
[15] = system: Caco-2; experiment: relative viability EC50 (midpoint between 100% and the lowest measured viability); higher = less toxic

Row | Structure (SMILES) | drug sensitivity score [1] | drug sensitivity score [2] | drug sensitivity score [3] | drug sensitivity score [4] | drug sensitivity score [5] | relative viability EC50 [6] [µM] | relative viability EC50 [7] [µM] | relative viability EC50 [8] [µM] | relative viability EC50 [9] [µM] | cell viability ([10]; 1 nM) [%] | cell viability ([10]; 10 nM) [%] | cell viability ([10]; 100 nM) [%] | cell viability ([10]; 1000 nM) [%] | cell viability ([10]; 10000 nM) [%] | cell viability ([11]; 1 nM) [%] | cell viability ([11]; 10 nM) [%] | cell viability ([11]; 100 nM) [%] | cell viability ([11]; 1000 nM) [%] | cell viability ([11]; 10000 nM) [%] | cell viability ([12]; 1 nM) [%] | cell viability ([12]; 10 nM) [%] | cell viability ([12]; 100 nM) [%] | cell viability ([12]; 1000 nM) [%] | cell viability ([12]; 10000 nM) [%] | cell viability ([13]; 1 nM) [%] | cell viability ([13]; 10 nM) [%] | cell viability ([13]; 100 nM) [%] | cell viability ([13]; 1000 nM) [%] | cell viability ([13]; 10000 nM) [%] | cell viability ([14]; 1 nM) [%] | cell viability ([14]; 10 nM) [%] | cell viability ([14]; 100 nM) [%] | cell viability ([14]; 1000 nM) [%] | cell viability ([14]; 10000 nM) [%] | relative viability EC50 [15] [µM]
1 | CC(C)CC(=O)Nc1n[nH]c2c1CN(C(=O)C1CCN(C)CC1)C2(C)C | 5.2 | 10.9 | 8.5 | 5.8 | 0.2 | 1.89 | 0.95 | 1.32 | > 10 | 98.7 | 90.7 | 93.6 | 89.6 | 37.6 | 103 | 115 | 102 | 51.9 | 9.7 | 101 | 102 | 94 | 68.7 | 15 | 99.1 | 98.9 | 85.6 | 76.9 | 51 | 103 | 106 | 104 | 100 | 85.7 | –
2 | CCCCOc1ccc(-c2cncc(C(=O)NCc3cccnc3N3CCOCC3)c2)cc1Cl | 0 | 0 | 0 | 0.8 | 0 | > 10 | > 10 | > 10 | > 10 | 107 | 96.4 | 92.9 | 104 | 90.4 | 99.7 | 93 | 113 | 106 | 106 | 104 | 103 | 99.5 | 106 | 92.8 | 92.8 | 104 | 94.7 | 102 | 74.8 | 102 | 102 | 100 | 96.5 | 94.4 | –
3 | CC[C@@H](C)N(C)C(=O)c1cc2ccccc2c(-c2ccccc2Cl)n1 | 0 | 0 | 0 | 0 | 0 | > 10 | > 10 | > 10 | > 10 | 108 | 106 | 93.8 | 95.8 | 99.2 | 92.5 | 113 | 89.6 | 100 | 107 | 102 | 98.3 | 102 | 97.3 | 103 | 106 | 104 | 95.6 | 96.4 | 98.6 | 99.4 | 105 | 100 | 102 | 107 | > 10
4 | Cc1[nH]c2ccc(Cl)cc2c1C1=CCNCC1 | 0 | 0 | 0 | 0.8 | 0 | > 10 | > 10 | > 10 | > 10 | 109 | 106 | 99.8 | 103 | 91.5 | 93.2 | 94.7 | 97.1 | 95.3 | 89.9 | 96.5 | 103 | 95.4 | 96.5 | 88.9 | 95.9 | 102 | 99.4 | 97 | 81.7 | 98.1 | 96.4 | 99.6 | 96 | 91.7 | > 10
5 | Cc1ccc(C(=O)N(CCCN)[C@@H](c2oc3cc(Cl)ccc3c(=O)c2Cc2ccccc2)C(C)C)cc1 | 7.2 | 27.1 | 18.1 | 14.3 | 19.7 | 2.33 | 0.0342 | 0.165 | 0.169 | 98.2 | 91.5 | 89.1 | 90 | 0.4 | 102 | 45.1 | 36.9 | 34.4 | 0.1 | 100 | 74.6 | 52.7 | 52 | 8.2 | 98.9 | 78.2 | 62 | 66.1 | 5.6 | 99.4 | 87.5 | 44.7 | 42 | -0.2 | 0.469
6 | CC(C)c1nnc(-c2ccc(-c3ccccc3)nc2)n1-c1cccc2nonc12 [ASP-2535] | 0 | 0 | – | 0 | 0 | > 10 | > 10 | – | > 10 | 103 | 92.2 | 103 | 93.3 | 103 | 104 | 106 | 107 | 107 | 88.7 | – | – | – | – | – | 104 | 99 | 96.4 | 95.5 | 96.2 | 98.8 | 102 | 97.8 | 102 | 92.9 | > 10
7 | CC(=O)N1CCN(CCOc2ccc(C3CCN(C4=Nn5c(nnc5C(F)(F)F)CC4)CC3)cc2)CC1 [AZD3514] | 0 | 4.5 | 2.1 | 1.1 | 3.4 | > 10 | 1.97 | – | – | 98.2 | 96.1 | 89.4 | 107 | 91 | 88.9 | 95.9 | 82.4 | 91.4 | 43.2 | 99.8 | 94 | 99.4 | 94.9 | 69.9 | 90.2 | 99.3 | 93.7 | 98.3 | 75.9 | 104 | 98.3 | 92.2 | 90.7 | 59.1 | > 10
